“And” between values parts separate entries of the source, which are not always exact repeats. Identical values can stand only once. Like-named read-outs stand apart in the source and are kept apart here. Marks after values point to notes of the source that are not given here.
How the values were obtained:
[1] = test system: advanced sarcoma; design: method as in earlier work; settings: maintenance therapy, cited from earlier work
[2] = design: method as in PMID 18202410, PMID 19228743, PMID 22143378; settings: Caucasians and Japanese patients, cited from earlier work
[3] = design: method as in PMID 22143378; settings: Japanese patients, cited from earlier work
[4] = design: method as in internal PK data; settings: Caucasian patients, ref internal PK data, cited from earlier work
[5] = Safety and tolerability (adverse events, CTCAE v4.0) of oral ridaforolimus 40 mg in Chinese patients; assay type: in vivo
Experimental: (§1) The eligible patients were given the following treatment regimen: a single oral dose of 40 mg of ridaforolimus on Day 1; and then, the treatment started from Day 8 with an oral dose of 40 mg of ridaforolimus for five consecutive days (on Day 8 through Day 12) followed by two day's off (Day 13 and 14). The treatment repeated every 7 days. Four treatment weeks was considered one treatment cycle. Sample blood for PK analysis were collected at the following times: on Day 1 prior to drug administration and for 168 h post-dose (at 1, 2, 3, 4, 6, 8, 24, 72, 96, and 168 h post-treatment); on Day 8 and Day 15 prior to drug administration; on Day 19 prior to drug administration and for 24 h post-dose (at 1, 2, 3, 4, 6, 8 and 24 h post-treatment). We monitored patients’ vital signs and conducted laboratory and physical examinations on trial Day 1, 8 and 19.
(§2) The patients continued to receive 40 mg of ridaforolimus for five consecutive days followed by two day's off until disease progression or intolerability. Averse events were monitored every four weeks and AEs were graded according to the Common Terminology Criteria for Adverse Events version 4.0. We also monitored patients’ vital signs and conducted laboratory and physical examinations every four weeks. Radiographic studies for disease assessment were conducted at baseline and again after every two treatment cycles (thus, every eight weeks). Tumor responses were assessed according to the Response Evaluation Criteria for Solid Tumors 1.1 guidelines. We conducted a full safety assessment in all patients four weeks after the administration of the last treatment dose.

[6] = test system: treatment-refractory advanced or relapsed solid tumors; assay: Tumor response (RECIST 1.1) in Chinese patients; assay type: in vivo
Experimental: as §2

[7] = Whole blood pharmacokinetics of oral ridaforolimus 40 mg in Chinese patients (HPLC-MS/MS, WinNonlin); assay type: in vivo; settings: for AUC(0-t): read-out: AUC0-24; for concentration at 24 h: read-out: C24hr
Experimental: as §1
Ridaforolimus concentration in both whole blood and plasma was analyzed using high-performance liquid chromatography with tandem mass spectrometric detection set at a lower limit of quantification of 0.2 ng/mL (Wuxi AppTec, Shanghai, China). Pharmacokinetic analyses were performed with WinNonlin, version 5.2.1 (Pharsight Corp., St. Louis, MO, USA). AUC0-∞, AUC0-24hr, C24hr, and Cmax were determined for each patient on Day 1 and on Day 19, if applicable, and the geometric means as well as the 95% CI were calculated. The accumulation of ridaforolimus was assessed for Cmax and for AUC0-24hr (geometric mean ratio Day 19 / Day 1 and 90% CI).

[8] = single dose, geometric mean (95% CI)
[9] = Grade 3 non-serious adverse event
[10] = Grade 4 non-serious adverse event
[11] = N = 15, not considered drug-related by the investigator
[12] = non-serious adverse event, all grades, N = 15
[13] = Day 1, single oral dose 40 mg, whole blood, median
[14] = human, whole blood, po, 40 mg, Day 1, single oral dose 40 mg, whole blood, geometric mean

SMILES: CO[C@H]1C[C@@H]2CC[C@@H](C)[C@@](O)(O2)C(=O)C(=O)N2CCCC[C@H]2C(=O)O[C@H]([C@H](C)C[C@@H]2CC[C@@H](OP(C)(C)=O)[C@H](OC)C2)CC(=O)[C@H](C)/C=C(\C)[C@@H](O)[C@@H](OC)C(=O)[C@H](C)C[C@H](C)/C=C/C=C/C=C/1C [ridaforolimus, Ridaforolimus]
- Median PFS ([1]; vs 14.6 weeks for placebo, P = 0.0001): 17.7 weeks
- Median overall survival at data cut-off (386 deaths) ([1]; vs 83.4 weeks for placebo, P = 0.23): 93.3 weeks
- Tolerability ([2]; oral 40mg per day for five consecutive days followed by two day's off): well tolerated
- Most important dose limiting toxicity ([2]; oral ridaforolimus): stomatitis
- AUC0-24 ([3]; multiple dose): 2,120 (1,320, 3,410) ng.hr/ml
- Cmax ([3]; multiple dose): 188 (116, 306) ng/ml
- Tmax ([3]; multiple dose): 4.04 (4.00, 8.15) hr
- AUC0-24 [3, 8]: 1,470 (914, 2,360) ng.hr/ml
- Cmax [3, 8]: 187 (115, 304) ng/ml
- t1/2 ([3]; single dose, harmonic mean (jack-knife SD)): 55.8 (50.95, 60.65)^c hr
- Tmax ([3]; single dose, median (min, max)): 4.00 (4.00, 8.00) hr
- Accumulation ratio AUC0-24 ([3]; geometric mean ratio (90% CI)): 1.44 (1.05, 1.99)
- Accumulation ratio Cmax ([3]; geometric mean ratio (90% CI)): 1.01 (0.674, 1.50)
- AUC0-24 ([4]; multiple dose): 1882(1630, 2180) ng.hr/ml
- Cmax ([4]; multiple dose): 160(136, 188) ng/ml
- AUC0-24 [4, 8]: 992(801, 1230) ng.hr/ml
- Cmax [4, 8]: 112(84.6, 148) ng/ml
- t1/2 ([4]; single dose, harmonic mean (pseudo SD)): 42.0(17.7)^d hr
- Tmax ([4]; single dose, median (min, max)): 2.79(1.42, 9.78) hr
- Accumulation ratio AUC0-24 ([4]; geometric mean ratio (90% CI)): 1.90(1.63, 2.21)
- Accumulation ratio Cmax ([4]; geometric mean ratio (90% CI)): 1.43(1.22, 1.68)
- Anaemia Grade 3, number of patients [5, 9]: 2/15
- Anaemia Grade 3, percentage of patients [5, 9]: 13.3%
- Constipation Grade 3, number of patients [5, 9]: 1/15
- Constipation Grade 3, percentage of patients [5, 9]: 6.7%
- Fatigue Grade 3, number of patients [5, 9]: 2/15
- Fatigue Grade 3, percentage of patients [5, 9]: 13.3%
- Gamma-glutamyltransferase increase Grade 3, number of patients [5, 9]: 1/15
- Gamma-glutamyltransferase increase Grade 3, percentage of patients [5, 9]: 6.7%
- Platelet count decrease Grade 3, number of patients [5, 9]: 1/15
- Platelet count decrease Grade 3, percentage of patients [5, 9]: 6.7%
- Proteinuria Grade 3, number of patients [5, 9]: 1/15
- Proteinuria Grade 3, percentage of patients [5, 9]: 6.7%
- Stomatitis Grade 3, number of patients [5, 9]: 2/15
- Stomatitis Grade 3, percentage of patients [5, 9]: 13.3%
- Anaemia Grade 4, number of patients [5, 10]: 1/15
- Anaemia Grade 4, percentage of patients [5, 10]: 6.7%
- Platelet count decrease Grade 4, number of patients [5, 10]: 1/15
- Platelet count decrease Grade 4, percentage of patients [5, 10]: 6.7%
- Patients who discontinued as a result of drug-related fatigue ([5]; N = 15): one
- Patients who discontinued as a result of drug-related interstitial lung disease ([5]; N = 15): three
- Patients who discontinued as a result of drug-related stomatitis ([5]; N = 15): one
- Patients who discontinued due to drug-related AEs ([5]; N = 15): five
- Patients who discontinued treatment as a result of AEs ([5]; N = 15): six
- Patients who developed serious AEs, number [5, 11]: Four
- Patients who developed serious AEs, percentage [5, 11]: 26.7%
- Patients who developed Grade 2 interstitial pneumonitis ([5]; all recovered after interruption and glucocorticoids): Three
- Non-serious AEs considered Grade 3 ([5]; fifteen patients): 11
- Non-serious AEs considered Grade 4 ([5]; fifteen patients): 2
- Non-serious AEs deemed by the investigator as drug related ([5]; fifteen patients): 111
- Total number of non-serious AEs reported ([5]; fifteen patients): 135
- Grade 3/4 drug-related AEs ([5]; human, in vivo): anemia, stomatitis, fatigue, thrombocytopenia, constipation, gamma glutamyltransferase increase, and proteinuria
- Most common drug-related adverse events (occurred in ≥40% of patients) ([5]; human, in vivo): stomatitis, proteinuria, leukopenia, hyperglycemia, and pyrexia
- ALT increase, number of patients [5, 12]: 3
- ALT increase, percentage of patients [5, 12]: 20%
- Anemia, number of patients [5, 12]: 5
- Anemia, percentage of patients [5, 12]: 33.3%
- Blood alkaline phosphatase increased, number of patients [5, 12]: 4
- Blood alkaline phosphatase increased, percentage of patients [5, 12]: 26.7%
- Blood cholesterol increased, number of patients [5, 12]: 5
- Blood cholesterol increased, percentage of patients [5, 12]: 33.3%
- Fatigue, number of patients [5, 12]: 4
- Fatigue, percentage of patients [5, 12]: 26.7%
- Gamma-glutamyltransferase increased, number of patients [5, 12]: 6
- Gamma-glutamyltransferase increased, percentage of patients [5, 12]: 40%
- Hyperglycaemia, number of patients [5, 12]: 7
- Hyperglycaemia, percentage of patients [5, 12]: 46.7%
- Hypoalbuminaemia, number of patients [5, 12]: 5
- Hypoalbuminaemia, percentage of patients [5, 12]: 33.3%
- Interstitial lung disease, number of patients [5, 12]: 3
- Interstitial lung disease, percentage of patients [5, 12]: 20%
- Platelet count decrease, number of patients [5, 12]: 5
- Platelet count decrease, percentage of patients [5, 12]: 33.3%
- Proteinuria, number of patients [5, 12]: 11
- Proteinuria, percentage of patients [5, 12]: 73.3%
- Pyrexia, number of patients [5, 12]: 6
- Pyrexia, percentage of patients [5, 12]: 40%
- Stomatitis, number of patients [5, 12]: 12
- Stomatitis, percentage of patients [5, 12]: 80%
- White blood cell count decrease, number of patients [5, 12]: 8
- White blood cell count decrease, percentage of patients [5, 12]: 53.3%
- Tolerability ([5]; once a day oral dose of 40 mg, Chinese patients): generally well tolerated
- Changes from baseline over time in serum cholesterol, serum glucose, serum triglycerides ([5]; summary statistics, an elevation from baseline was observed): no clinically significant elevations
- Patients who discontinued treatment because of progressive disease ([6]; N = 15): Eight
- Partial or complete responses ([6]; RECIST 1.1): absence of partial or complete responses
- Linearity of blood PKs ([7]; AUC0-24hr at steady state lower than AUC0-∞ after single dose): non-linear
- Apparent t1/2 (elimination half-life) ([7]; Day 1, single oral dose 40 mg, whole blood, harmonic mean): 52.9 h
- Tlag (absorption lag time) [7, 13]: 2 h and 2.00 h
- Tmax [7, 13]: 4.03 h
- Absorption after oral administration ([7]; human, in vivo, po): slowly absorbed
- AUC(0-t) [7, 14]: 1850 ng·h/mL
- concentration at 24 h [7, 14]: 34.8 ng/mL
- Cmax ([7]; human, whole blood, po, 40 mg, Day 1, single oral dose 40 mg, whole blood, geometric mean, read-out: Cmax): 210 ng/mL
- half-life ([7]; human, whole blood, po, 40 mg, Day 1, single oral dose 40 mg, whole blood, harmonic mean, read-out: Apparent t1/2 (elimination half-life) (converted)): 53 h
- Tmax ([7]; human, whole blood, po, 40 mg, Day 1, single oral dose 40 mg, whole blood, median, read-out: Tmax): 4 h
- Cmax ([7]; human, whole blood, po, 40 mg, Day 1, single oral dose 40 mg, read-out: Cmax, median value): 192 ng/mL
- AUC(0-t) ([7]; human, whole blood, po, 40 mg, Day 19, multiple once daily oral 40 mg (steady state), whole blood, geometric mean): 2010 ng·h/mL
- concentration at 24 h ([7]; human, whole blood, po, 40 mg, Day 19, multiple once daily oral 40 mg, whole blood, geometric mean): 49.7 ng/mL
- Cmax ([7]; human, whole blood, po, 40 mg, Day 19, multiple once daily oral 40 mg, whole blood, geometric mean, read-out: Cmax): 167 ng/mL
- Tmax ([7]; human, whole blood, po, 40 mg, Day 19, multiple once daily oral 40 mg, whole blood, median, read-out: Tmax): 4 h
- Cmax ([7]; human, whole blood, po, 40 mg, Day 19, multiple once daily oral 40 mg, read-out: Cmax, median value): 203 ng/mL
- AUC(0-inf) ([7]; human, Day 1, single oral dose 40 mg, whole blood, geometric mean): 3650 ng·h/mL
